In brackets after ≈: the same amount, converted by molar mass. Where two headings read alike, the source gives them in different places.
Legend:
[1] = cited from earlier work
[2] = Packing of metazachlor in C16 protein microbeads, active substance distribution (photometric at 215 nm); format: physicochemical
Procedure: 500 μl of a 10 mg/ml C16 protein-comprising potassium phosphate solution (5 mM, pH 8.0) were mixed with 100 μl of a metazachlor solution (50 mg/ml in isopropanol). C16 Protein microbead formation was induced by adding 1 ml of 1 M potassium phosphate buffer (pH 8.0). The mixture was incubated for 1 h at room temperature and then centrifuged for 10 min at 20000×g. The pellet was washed twice with 5 ml of double-distilled H2O and then lyophilized. An identical mixture without C16 protein was carried out as control.
In each case, about 20% of the active substance were present in the wash supernatants.
(§1) Analysis of the Active Substance Distribution (Photometric Determination at λ=215 nm)

[3] = target: proteinase K (Parengyodontium album, UniProt P06873); test: Release of metazachlor from C16 protein microbeads by proteinase K digestion
Chain of proteinase K (P06873 106-384): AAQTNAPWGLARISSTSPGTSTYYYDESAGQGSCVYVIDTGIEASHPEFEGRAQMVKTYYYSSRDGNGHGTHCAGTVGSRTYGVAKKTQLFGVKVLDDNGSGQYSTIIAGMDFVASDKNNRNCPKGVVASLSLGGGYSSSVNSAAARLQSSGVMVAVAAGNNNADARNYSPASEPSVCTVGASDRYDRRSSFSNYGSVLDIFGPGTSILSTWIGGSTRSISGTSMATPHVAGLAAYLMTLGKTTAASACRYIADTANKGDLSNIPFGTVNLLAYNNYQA
Procedure: The lyophilized metazachlor-comprising C16 protein microbeads were proteolytically digested in 1 ml of 10 mM Tris buffer; 0.1% SDS; 100 μg of proteinase K for 1 h at 37° C. The active substance crystals remaining from the mixture after centrifugation for 10 minutes (20000×g) were dissolved in 500 μl of isopropanol. About 11% of the amount of metazachlor used was detected in the supernatant of the protease digestion. The active substance crystals redissolved in isopropanol constituted about 35% of the amount of metazachlor used.
as §1

[4] = of the amount of metazachlor used
[5] = proteinase K, 1 h, 37° C., 5.0 mg metazachlor used

Molecule: Clc1ccccc1C(c1ccccc1)(c1ccccc1)n1ccnc1 [Clotrimazole]
- Solubility in water ([1]; 25° C.): <10 µg/mL

Molecule: Cc1cccc(C)c1N(Cn1cccn1)C(=O)CCl [metazachlor]
- Crystal formation after potassium phosphate precipitation ([2]; mixture with C16 protein): no metazachlor crystals were visible
- Crystal formation after potassium phosphate precipitation ([2]; mixture without C16 protein): large active substance crystals were formed
- Active substance crystals redissolved in isopropanol [3, 4]: about 35%
- Metazachlor detected in the supernatant of the protease digestion [3, 4]: About 11%
- Amount of substance, pellet after digestion in isopropanol [3, 5]: 1.74 mg
- Amount of substance, supernatant after protease digestion [3, 5]: 0.55 mg

Molecule: NC(=O)N1c2ccccc2C=Cc2ccccc21 [Carbamazipine]
- Solubility in water ([1]; RT): 945.1 µg/mL (≈ 4000 µM)

B1: C16 protein: synthetic spider silk protein with the polypeptide sequence shown in SEQ ID NO: 1 (protein)
chain: MASMTGGQQMGRGSMGSSAAAAAAAASGPGGYGPENQGPSGPGGYGPGGPGSSAAAAAAAASGPGGYGPENQGPSGPGGYGPGGPGSSAAAAAAAASGPGGYGPENQGPSGPGGYGPGGPGSSAAAAAAAASGPGGYGPENQGPSGPGGYGPGGPGSSAAAAAAAASGPGGYGPENQGPSGPGGYGPGGPGSSAAAAAAAASGPGGYGPENQGPSGPGGYGPGGPGSSAAAAAAAASGPGGYGPENQGPSGPGGYGPGGPGSSAAAAAAAASGPGGYGPENQGPSGPGGYGPGGPGSSAAAAAAAASGPGGYGPENQGPSGPGGYGPGGPGSSAAAAAAAASGPGGYGPENQGPSGPGGYGPGGPGSSAAAAAAAASGPGGYGPENQGPSGPGGYGPGGPGSSAAAAAAAASGPGGYGPENQGPSGPGGYGPGGPGSSAAAAAAAASGPGGYGPENQGPSGPGGYGPGGPGSSAAAAAAAASGPGGYGPENQGPSGPGGYGPGGPGSSAAAAAAAASGPGGYGPENQGPSGPGGYGPGGPGSSAAAAAAAASGPGGYGPENQGPSGPGGYGPGGPG
modifications: Synthetic spider silk C16 protein
- Effect on the crystallization of metazachlor ([2]; in the presence of aqueous potassium phosphate buffer): significant inhibitiory effect

— patent publication US8288512B2, “Use of amphiphilic self-assembling proteins for formulating poorly water-soluble effect substances” (BASF SE, priority 2006, dated 2012)
